System: Adjuvant Arthritis in Rats
Test: Adjuvant induced arthritis in rats (Freund's adjuvant, right hind paw)
Text: Adjuvant induced experimental polyarthritis is a specific systemic disease of the rat which shares interesting similarities with rheumatoid arthritis. Specifically, the histology of the two diseases bears a remarkable resemblance as shown by C. M. Pearson et al., Am. J. Pathol. 42, 73 (1963). E. M. Glenn, Am. J. Vet. Res. 27 (116) 339 (1966) has classified adjuvant induced polyarthritis as a crippling and permanent deformity resulting from diffuse connective tissue involvement around certain susceptible joints in the rat. Zahiri et al., Can. Med. Ass. J. 101, 269 (1969) have shown that the fusiform swelling of the distal joints is associated with edema, congestion and synovitis including pannus formation, all of which precede the ultimate destruction of bone and cartilage. Furthermore, Zahiri et al. indicate that the cartilage destruction in the joint is due to an invasive pannus which originates in the marginal synovium and extends across the articular surface to erode it. […] See S. Wong et al., J. Pharm. & Exptl. Ther. 185, 127 (1973) and G. R. Bobalick et al., Agents & Actions 4, 364 (1974).
Groups of three Royal Hart, Wistar strain rats weighing 200±10 grams each were injected intradermally in the right hind paw with Freund's adjuvant (dried human tubercle bacilli in a mineral oil vehicle) at a dose of 2 mg./kg. of body weight. Test compound was administered orally in a 1.5% starch vehicle at various doses once daily on days 0 through 13 post challenge. […] On the 14th and 21st day post challenge the diameter of the injected paw (primary lesion) was measured by micrometer caliper. The volume of inflamed paws were estimated from these measurements and the results are expressed as percent inhibition of swelling as compared to controls. At the same time, the other inflamed sites, such as ears, paws and tail (secondary lesions) were observed and each rat was graded as to degree of inflammation and swelling present. The grading is based on a scale of 0 to 24, where 0 represents a complete absence of induced arthritic nodules and 24 represents the maximum degree of inflammation. The mean grade for each treated group is calculated and the effects of each compound are expressed as percent inhibition of the control grade.

[1] = oral dose 50 mg./kg. once daily days 0-13
[2] = oral dose 100 mg./kg. once daily days 0-13
[3] = oral dose 200 mg./kg. once daily days 0-13
[4] = oral dose 0.25 mg./kg. once daily days 0-13
[5] = oral dose 0.5 mg./kg. once daily days 0-13
[6] = oral dose 1 mg./kg. once daily days 0-13
[7] = oral dose 2 mg./kg. once daily days 0-13
[8] = oral dose 18.8 mg./kg. once daily days 0-13
[9] = oral dose 37.5 mg./kg. once daily days 0-13
[10] = oral dose 75 mg./kg. once daily days 0-13
[11] = oral dose 150 mg./kg. once daily days 0-13
[12] = oral dose 400 mg./kg. once daily days 0-13

With N#CCC(=O)c1cccs1 [B-oxo-2-thiophenepropionitrile, β-oxo-2-thiophenepropionitrile] the “progression of the arthritis and associated joint deterioration” value (adjuvant arthritic rats, oral dosing, summary of Table I) was “appears to suppress the progression of the arthritis and associated joint deterioration”, the “% Inhibition of Control Grade (secondary lesion) Day 14” value [1] was 46% and the “% Inhibition of Swelling (primary lesion) Day 14” value [1] was 46%. The “Mean Weight Gain Day 14” value [1] was 56 grams, the “% Inhibition of Control Grade (secondary lesion) Day 21” value [1] was 0% and the “% Inhibition of Swelling (primary lesion) Day 21” value [1] was 18%. The “Mean Weight Gain Day 21” value [1] was 48 grams, the “Dead/Treated At 21 Days” value (oral dose 50 mg./kg. once daily days 0-13, adjuvant arthritic rats) was 3/36 and the “% Inhibition of Control Grade (secondary lesion) Day 14” value [2] was 58%. For the same compound, the “% Inhibition of Swelling (primary lesion) Day 14” value [2] was 58%, the “Mean Weight Gain Day 14” value [2] was 52 grams and the “% Inhibition of Control Grade (secondary lesion) Day 21” value [2] was 10%. The “% Inhibition of Swelling (primary lesion) Day 21” value [2] was 42%, the “Mean Weight Gain Day 21” value [2] was 69 grams and the “Dead/Treated At 21 Days” value (oral dose 100 mg./kg. once daily days 0-13, adjuvant arthritic rats) was 3/18. For the same compound, the “% Inhibition of Control Grade (secondary lesion) Day 14” value [3] was 72%, the “% Inhibition of Swelling (primary lesion) Day 14” value [3] was 72% and the “Mean Weight Gain Day 14” value [3] was 34 grams. The “% Inhibition of Control Grade (secondary lesion) Day 21” value [3] was 32%, the “% Inhibition of Swelling (primary lesion) Day 21” value [3] was 29% and the “Mean Weight Gain Day 21” value [3] was 54 grams. For the same compound, the “Dead/Treated At 21 Days” value (oral dose 200 mg./kg. once daily days 0-13, adjuvant arthritic rats) was 2/18.
In the case of COc1ccc2c(c1)c(CC(=O)O)c(C)n2C(=O)c1ccc(Cl)cc1 [Indomethacin], the “% Inhibition of Swelling (primary lesion) Day 14” value [4] was 30%, the “Mean Weight Gain Day 14” value [4] was 51 grams and the “% Inhibition of Swelling (primary lesion) Day 21” value [4] was 4%. For the same compound, the “Mean Weight Gain Day 21” value [4] was 57 grams, the “% Inhibition of Swelling (primary lesion) Day 14” value [5] was 40% and the “Mean Weight Gain Day 14” value [5] was 53 grams. The “% Inhibition of Swelling (primary lesion) Day 21” value [5] was 20%, the “Mean Weight Gain Day 21” value [5] was 51 grams and the “% Inhibition of Swelling (primary lesion) Day 14” value [6] was 46%. For the same compound, the “Mean Weight Gain Day 14” value [6] was 63 grams, the “% Inhibition of Swelling (primary lesion) Day 21” value [6] was 19% and the “Mean Weight Gain Day 21” value [6] was 65 grams. The “% Inhibition of Swelling (primary lesion) Day 14” value [7] was 51%, the “Mean Weight Gain Day 14” value [7] was 68 grams and the “% Inhibition of Swelling (primary lesion) Day 21” value [7] was 24%. For the same compound, the “Mean Weight Gain Day 21” value [7] was 68 grams.
In the case of CCCCC1C(=O)N(c2ccccc2)N(c2ccccc2)C1=O [Phenylbutazone], the “% Inhibition of Swelling (primary lesion) Day 14” value [8] was 31%, the “Mean Weight Gain Day 14” value [8] was 50 grams and the “% Inhibition of Swelling (primary lesion) Day 21” value [8] was 7%. The “Mean Weight Gain Day 21” value [8] was 45 grams, the “% Inhibition of Swelling (primary lesion) Day 14” value [9] was 56% and the “Mean Weight Gain Day 14” value [9] was 53 grams. The “% Inhibition of Swelling (primary lesion) Day 21” value [9] was 14%, the “Mean Weight Gain Day 21” value [9] was 53 grams and the “% Inhibition of Swelling (primary lesion) Day 14” value [10] was 62%. For the same compound, the “Mean Weight Gain Day 14” value [10] was 51 grams, the “% Inhibition of Swelling (primary lesion) Day 21” value [10] was 28% and the “Mean Weight Gain Day 21” value [10] was 50 grams. For the same compound, the “% Inhibition of Swelling (primary lesion) Day 14” value [11] was 75%, the “Mean Weight Gain Day 14” value [11] was 40 grams and the “% Inhibition of Swelling (primary lesion) Day 21” value [11] was 44%. The “Mean Weight Gain Day 21” value [11] was 50 grams.
In the case of CC(=O)Oc1ccccc1C(=O)O [Aspirin], the “% Inhibition of Swelling (primary lesion) Day 14” value [1] was 23%, the “Mean Weight Gain Day 14” value [1] was 56 grams and the “% Inhibition of Swelling (primary lesion) Day 21” value [1] was 3%. For the same compound, the “Mean Weight Gain Day 21” value [1] was 44 grams, the “% Inhibition of Swelling (primary lesion) Day 14” value [2] was 36% and the “Mean Weight Gain Day 14” value [2] was 48 grams. For the same compound, the “% Inhibition of Swelling (primary lesion) Day 21” value [2] was 13%, the “Mean Weight Gain Day 21” value [2] was 53 grams and the “% Inhibition of Swelling (primary lesion) Day 14” value [3] was 48%. The “Mean Weight Gain Day 14” value [3] was 40 grams, the “% Inhibition of Swelling (primary lesion) Day 21” value [3] was 27% and the “Mean Weight Gain Day 21” value [3] was 44 grams. The “% Inhibition of Swelling (primary lesion) Day 14” value [12] was 73%, the “Mean Weight Gain Day 14” value [12] was 41 grams and the “% Inhibition of Swelling (primary lesion) Day 21” value [12] was 48%. For the same compound, the “Mean Weight Gain Day 21” value [12] was 55 grams.

From US4189497A, “Method of treating arthritic disease” (American Cyanamid Company, priority 1978, dated 1980)
